The supplement of paper PMC10307832

compound: CCOC1=CC=CC=C1N=NC2=C(NN(C2=O)C3=NC(=CS3)C4=CC=CC=C4)C [BAM7] + N=C(N)NC(=N)NCCc1ccccc1 [Phenformin] (partner 250 µM); experiment: relative viability (nuclei count vs DMSO), 5 days (fraction); higher = more cells survive; settings: first compound 0.5 µM
Method in brief: (§1)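 Lung cancer cell lines were pin-tool dosed in 1536-well plates on the day after seeding, with either a lone drug or a fixed anchor-drug dose plus five library-drug doses (not always all listed) in √10 steps. Nuclei were counted on 4× images after 5 days. Relative viability is the ratio of treated-well to vehicle-well nuclei counts, with each value a median of duplicate plates.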

Cell Line | relative viability
EPLC-272H | 0.291
NCI-H2228 | 0.302
NCI-H1792 | 0.333
NCI-H1355 | 0.462
NCI-H3122 | 0.362
NCI-H1437 | 0.263
NCI-H1755 | 0.657
NCI-H2023 | 0.446
HCC-15 | 0.506
NCI-H1793 | 0.342
PC-14 | 0.619
EKVX | 0.241
LC-2-ad | 0.538
NCI-H1944 | 0.223
NCI-H1975 | 0.401
RERF-LC-KJ | 0.357
ABC-1 | 0.223
NCI-H358 | 0.343
NCI-H650 | 0.443

same assay, conditions: first compound 5 µM

Cell Line | relative viability
NCI-H322M | 0.805
LCLC-97TM1 | 0.443
NCI-H2009 | 0.542
A-427 | 0.323
NCI-H441 | 1.1
NCI-H661 | 0.258
NCI-H1734 | 0.491
NCI-H460 | 0.573
NCI-H2347 | 0.31
SK-LU-1 | 0.733
NCI-H1395 | 0.522
201T | 0.464
NCI-H1915 | 0.374
HCC-827 | 0.373
LXF-289 | 0.552
NCI-H23 | 0.76
NCI-H647 | 0.443
CAL-12T | 0.601
NCI-H1651 | 0.303

Cell Line | relative viability
NCI-H2228 | 0.355
NCI-H1792 | 0.219
NCI-H1355 | 0.421
NCI-H3122 | 0.371
NCI-H1437 | 0.23
NCI-H1755 | 0.657
NCI-H2023 | 0.393
HCC-15 | 0.434
NCI-H1793 | 0.338
PC-14 | 0.558
EKVX | 0.235
LC-2-ad | 0.55
NCI-H1944 | 0.199
NCI-H1975 | 0.425
RERF-LC-KJ | 0.35
ABC-1 | 0.237
NCI-H358 | 0.383
NCI-H650 | 0.506

same assay, conditions: first compound 15.81 µM

Cell Line | relative viability
NCI-H322M | 0.806
LCLC-97TM1 | 0.43
NCI-H2009 | 0.426
A-427 | 0.288
NCI-H441 | 0.779
NCI-H661 | 0.264
NCI-H1734 | 0.392
NCI-H460 | 0.513
SK-LU-1 | 0.532
NCI-H1395 | 0.446
201T | 0.474
NCI-H1915 | 0.405
HCC-827 | 0.453
LXF-289 | 0.524
NCI-H23 | 0.86
NCI-H647 | 0.539
CAL-12T | 0.586
NCI-H1651 | 0.343
EPLC-272H | 0.322

Cell Line | relative viability
NCI-H2228 | 0.418
NCI-H1792 | 0.274
NCI-H1355 | 0.425
NCI-H3122 | 0.329
NCI-H1437 | 0.3
NCI-H1755 | 0.611
NCI-H2023 | 0.37
HCC-15 | 0.496
NCI-H1793 | 0.348
PC-14 | 0.588
EKVX | 0.198
LC-2-ad | 0.582
NCI-H1944 | 0.205
NCI-H1975 | 0.391
RERF-LC-KJ | 0.29
ABC-1 | 0.247
NCI-H358 | 0.369
NCI-H650 | 0.499

same assay, conditions: first compound 50 µM

Cell Line | relative viability
NCI-H322M | 0.799
LCLC-97TM1 | 0.473
NCI-H2009 | 0.465
A-427 | 0.35
NCI-H441 | 0.923
NCI-H661 | 0.298
NCI-H1734 | 0.401
NCI-H460 | 0.534
NCI-H2347 | 0.37
SK-LU-1 | 0.619
NCI-H1395 | 0.538
201T | 0.483
NCI-H1915 | 0.382
HCC-827 | 0.362
LXF-289 | 0.516
NCI-H23 | 0.856
NCI-H647 | 0.591
CAL-12T | 0.607
NCI-H1651 | 0.354

Cell Line | relative viability
EPLC-272H | 0.281
NCI-H2228 | 0.317
NCI-H1792 | 0.369
NCI-H1355 | 0.458
NCI-H3122 | 0.35
NCI-H1437 | 0.275
NCI-H1755 | 0.645
NCI-H2023 | 0.411
HCC-15 | 0.471
NCI-H1793 | 0.317
PC-14 | 0.591
EKVX | 0.231
LC-2-ad | 0.591
NCI-H1944 | 0.22
NCI-H1975 | 0.427
RERF-LC-KJ | 0.328
ABC-1 | 0.266
NCI-H358 | 0.376
NCI-H650 | 0.495

compound: CCn1c(-c2nonc2N)nc2c(C#CC(C)(C)O)ncc(OC[C@H]3CCCNC3)c21 + N=C(N)NC(=N)NCCc1ccccc1 [Phenformin] (partner 250 µM); experiment: as above; settings: first compound 0.01 µM
Method in brief: as §1

Cell Line | relative viability
NCI-H322M | 0.717
LCLC-97TM1 | 0.375
NCI-H2009 | 0.473
A-427 | 0.315
NCI-H441 | 0.824
NCI-H661 | 0.277
NCI-H1734 | 0.365
NCI-H460 | 0.518
NCI-H2347 | 0.442
SK-LU-1 | 0.552
NCI-H1395 | 0.417
201T | 0.455
NCI-H1915 | 0.384
HCC-827 | 0.395
LXF-289 | 0.511
NCI-H23 | 0.729
NCI-H647 | 0.595
CAL-12T | 0.506
NCI-H1651 | 0.353
EPLC-272H | 0.275
NCI-H2228 | 0.363
NCI-H1792 | 0.203
NCI-H1355 | 0.488
NCI-H3122 | 0.401
NCI-H1437 | 0.331
NCI-H1755 | 0.604
NCI-H2023 | 0.4
HCC-15 | 0.439
NCI-H1793 | 0.339
